Our source for the DC50 values is patent US11312702B2, “Substituted quinoline-8-carbonitrile derivatives having androgen receptor degradation activity and uses thereof” (ACCUTAR BIOTECHNOLOGY INC., priority 2019, dated 2022).

This test addresses T1, androgen receptor (AR) (Homo sapiens, UniProt P10275, T878A).
T1 construct: endogenous in cells; host or cells: LNCAP
T1 sequence (P10275 1-920 T878A): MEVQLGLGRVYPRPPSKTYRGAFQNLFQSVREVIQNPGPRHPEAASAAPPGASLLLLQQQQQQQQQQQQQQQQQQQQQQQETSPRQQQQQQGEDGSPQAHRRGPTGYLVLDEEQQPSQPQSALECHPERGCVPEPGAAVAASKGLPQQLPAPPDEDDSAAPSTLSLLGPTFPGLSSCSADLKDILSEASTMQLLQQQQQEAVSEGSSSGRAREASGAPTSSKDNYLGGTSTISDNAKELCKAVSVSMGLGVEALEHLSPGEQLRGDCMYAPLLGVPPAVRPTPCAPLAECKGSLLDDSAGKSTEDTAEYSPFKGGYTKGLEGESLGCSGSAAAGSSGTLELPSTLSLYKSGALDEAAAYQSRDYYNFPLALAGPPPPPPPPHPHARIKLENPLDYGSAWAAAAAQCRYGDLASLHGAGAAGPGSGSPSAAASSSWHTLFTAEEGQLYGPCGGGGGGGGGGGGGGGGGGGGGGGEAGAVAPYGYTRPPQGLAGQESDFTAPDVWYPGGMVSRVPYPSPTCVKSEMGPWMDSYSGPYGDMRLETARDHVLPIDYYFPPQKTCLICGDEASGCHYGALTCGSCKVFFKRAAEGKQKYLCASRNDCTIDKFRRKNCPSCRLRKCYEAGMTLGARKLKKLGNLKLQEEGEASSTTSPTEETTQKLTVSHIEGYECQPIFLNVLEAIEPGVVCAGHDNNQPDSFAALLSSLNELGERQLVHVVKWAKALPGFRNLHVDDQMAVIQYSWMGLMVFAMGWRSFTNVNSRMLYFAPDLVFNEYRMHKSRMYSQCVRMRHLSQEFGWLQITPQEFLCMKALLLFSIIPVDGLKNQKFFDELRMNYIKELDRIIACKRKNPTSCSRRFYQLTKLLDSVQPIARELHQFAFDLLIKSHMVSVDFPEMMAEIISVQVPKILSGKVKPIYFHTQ
As to the kind of experiment: AR degradation activity in LNCAP cells (Western blot). The test is classed as cell-based. The note with it: LNCAP cell line, 24 hours after administration; DC50 = concentration for 50% target protein degradation. The method, then:
LNCAP, VCAP and 22Rv1 cells were plated in 24-well plates at 1.5×10E5 cells/well in the RPMI growth medium containing 10% FBS and 1% Penicillin Streptomycin, and then incubated at 37° C. overnight. The following day, the test compound was administered to the cells by using 1000× compound stock solution prepared in DMSO at various concentrations. After administration of the compound, the cells were then incubated at 37° C. for 24 hours. Upon completion, the cells were washed with PBS and protein was collected in Laemmli sample buffer (1×; VWR International). Proteins in cell lysate were separated by SDS-PAGE and transferred to Odyssey nitrocellulose membranes (Licor) with iblot® dry blotting transfer system (ThermoFisher). Nonspecific binding was blocked by incubating membranes with Intercept Blocking Buffer (Licor) for 1 hour at room temperature with gentle shaking. The membranes were then incubated overnight at 4° C. with Primary antibodies rabbit anti-AR (1:1,000, Cell Signaling, 5153) and mouse anti-GAPDH (1:5,000, Santa Cruz Biotechnology, sc-47724) diluted in Intercept Blocking Buffer containing 0.1% Tween 20. After washing 3 times with TBS-T, the membranes were incubated with IRDye® […] goat anti-mouse IgG (1:20,000, Licor) or IRDye®8000W goat anti-rabbit IgG (1:20,000, Licor) for 1 hour. After TBS-T washes, membranes were rinsed in TBS and scanned on Odyssey® CLx Imaging System (Licor). The bands were quantified using Image Studio™ Software (Licor).
Table 4 summarizes the androgen receptor (AR) degradative activity and cell growth inhibition of exemplary compounds in (a) LNCAP, VCAP, and 22Rv1 cell lines 24 hours after administration of the compound; (b) RAMOS cell line 3 days after administration of the compound; and (c) VCAP cell line 6 days after administration of the compound. DC50: compound concentration needed for 50% target protein degradation.
(A western blot detects proteins with antibodies after separation by electrophoresis.)
For `CN(CC1CCN(c2ccc(C(=O)NC3C(C)(C)C(Oc4ccc(C#N)c5ncccc45)C3(C)C)cn2)CC1)C1CC(Oc2ccc3c(c2)C(=O)N(C2CCC(=O)NC2=O)C3=O)C1` (stereo not drawn) [Compound 2-9, N-((1,3-trans)-3-((8-cyanoquinolin-5-yl)oxy)-2,2,4,4-tetramethylcyclobutyl)-6-(4-((((1r,3r)-3-((2-(2,6-dioxopiperidin-3-yl)-1,3-dioxoisoindolin-5-yl)oxy)cyclobutyl)(methyl)amino)methyl)piperidin-1-yl)nicotinamide], the DC50 came to 0.2 nM.

The compound `CC(C)N(CC1CCN(c2ccc(C(=O)NC3C(C)(C)C(Oc4ccc(C#N)c5ncccc45)C3(C)C)cn2)CC1)C1CC(Oc2ccc3c(c2)C(=O)N(C2CCC(=O)NC2=O)C3=O)C1` (stereo not drawn) [Compound 2-11, N-((1,3-trans)-3-((8-cyanoquinolin-5-yl)oxy)-2,2,4,4-tetramethylcyclobutyl)-6-(4-((((1r,3r)-3-((2-(2,6-dioxopiperidin-3-yl)-1,3-dioxoisoindolin-5-yl)oxy)cyclobutyl)(isopropyl)amino)methyl)piperidin-1-yl)nicotinamide] registered a DC50 of 2.8 nM.

Turning to `CC1(C)C(NC(=O)c2ccc(N3CCC(CN4CCN(c5cc6c(cc5F)C(=O)N(C5CCC(=O)NC5=O)C6=O)CC4)CC3)nn2)C(C)(C)C1Oc1ccc(C#N)c2ncccc12` (stereo not drawn) [Compound 2-35, N-((1,3-trans)-3-((8-cyanoquinolin-5-yl)oxy)-2,2,4,4-tetramethylcyclobutyl)-6-(4-((4-(2-(2,6-dioxopiperidin-3-yl)-6-fluoro-1,3-dioxoisoindolin-5-yl)piperazin-1-yl)methyl)piperidin-1-yl)pyridazine-3-carboxamide], the DC50 was found to be 0.4 nM.

Compound `CC1(C)C(NC(=O)c2ccc(N3CCC(CN4CCN(c5cc6c(cc5F)C(=O)N(C5CCC(=O)NC5=O)C6=O)CC4)CC3)nc2)C(C)(C)C1Oc1ccc(C#N)c2ncccc12` (stereo not drawn) [Compound 2-36, N-((1,3-trans)-3-((8-cyanoquinolin-5-yl)oxy)-2,2,4,4-tetramethylcyclobutyl)-6-(4-((4-(2-(2,6-dioxopiperidin-3-yl)-6-fluoro-1,3-dioxoisoindolin-5-yl)piperazin-1-yl)methyl)piperidin-1-yl)nicotinamide] displayed a DC50 of 1.4 nM.

`CC1(C)C(NC(=O)c2ccc(N3CCC(CN4CCN(c5cc6c(cc5F)C(=O)N(C5CCC(=O)NC5=O)C6=O)CC4)CC3)cc2)C(C)(C)C1Oc1ccc(C#N)c2ncccc12` (stereo not drawn) [Compound 2-47, N-((1,3-trans)-3-((8-cyanoquinolin-5-yl)oxy)-2,2,4,4-tetramethylcyclobutyl)-4-(4-((4-(2-(2,6-dioxopiperidin-3-yl)-6-fluoro-1,3-dioxoisoindolin-5-yl)piperazin-1-yl)methyl)piperidin-1-yl)benzamide]: half-maximal degradation (DC50) was put at 0.8 nM.

In the case of `CC1(C)C(NC(=O)c2ccc(N3CCC(CN4CCN(c5cc6c(cc5F)C(=O)N(C5CCC(=O)NC5=O)C6=O)CC4)CC3)c(F)c2)C(C)(C)C1Oc1ccc(C#N)c2ncccc12` (stereo not drawn) [Compound 2-48, N-((1,3-trans))-3-((8-cyanoquinolin-5-yl)oxy)-2,2,4,4-tetramethylcyclobutyl)-4-(4-((4-(2-(2,6-dioxopiperidin-3-yl)-6-fluoro-1,3-dioxoisoindolin-5-yl)piperazin-1-yl)methyl)piperidin-1-yl)-3-fluorobenzamide], the half-maximal degradation concentration (DC50) turned out to be 3.8 nM.

With `CC1(C)C(NC(=O)c2cnc(N3CCC(CN4CCN(c5cc6c(cc5F)C(=O)N(C5CCC(=O)NC5=O)C6=O)CC4)CC3)nc2)C(C)(C)C1Oc1ccc(C#N)c2ncccc12` (stereo not drawn) [Compound 2-50, N-((1,3-trans)-3-((8-cyanoquinolin-5-yl)oxy)-2,2,4,4-tetramethylcyclobutyl)-2-(4-((4-(2-(2,6-dioxopiperidin-3-yl)-6-fluoro-1,3-dioxoisoindolin-5-yl)piperazin-1-yl)methyl)piperidin-1-yl)pyrimidine-5-carboxamide], the DC50 was determined as 0.6 nM.

For orientation: DC50 means the midpoint of the concentration-degradation curve. Higher therefore signals degradation only at high concentration.
